Data: patent US9359338B2, “Cyclopropanecarboxamido-substitute aromatic compounds as anti-tumor agents” (Crown Bioscience Inc. (Taiwan), priority 2012, dated 2016)
Read-outs that look alike come from different tables or passages of the source.

How the values were obtained:
[1] = biological target: KDR kinase (790-1356 AA) (Homo sapiens (Human), UniProt P35968); test: Inhibitory activity at KDR kinase (Lance Ultra Ulight-TK assay); assay type: biochemical
Method in brief: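 Kinase (20 nM final) and compound were premixed 20 min at 30 °C, then phosphorylation ran 2 h at 30 °C with ATP at 90 μM and Ulight-TK substrate at 50 μM, pH 7.5, Mg2+ and Mn2+ present.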

[2] = tested on: PLC-PRF-5 cells; test: Inhibition of proliferation of PLC-PRF-5 cells (ATPlite); assay type: cell-based; details: Homo sapiens
Method in brief: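 Antiproliferative IC50 from luminescent ATP detection (ATPlite) after 96 h compound exposure at 37 °C. Cells grown in DMEM plus 10% FBS and allowed 2 h to settle, then dosed with eight 3-fold dilutions topping at 30 μM final, DMSO 0.3%.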

[3] = tested on: pERK in MDA-MB-231 cells; test: Inhibitory activity at pERK (In Cell Western, MDA-MB-231 cells); assay type: cell-based
Method in brief: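 pERK was measured by in-cell immunofluorescence (PI nuclear counterstain, Acumen read-out) in fixed MDA-MB-231 cells. Compound exposure lasted 2 h in DMEM with 0.1% BSA, using eight 3-fold dilutions starting at 30 μM final and 0.3% DMSO. IC50 values were derived from the resulting curves.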

[4] = biological target: B-Raf kinase (Homo sapiens (Human), UniProt P15056); test: Inhibitory activity at B-Raf kinase (ADP-GLO assay); assay type: biochemical
Description: Inhibitory Activity of Compounds at B-Raf Kinase
• [Experimental method]: Use ADP-GLO™ assay kit from Promega to evaluate the inhibitory activity of compounds at B-Raf • [Instrument]: PerKinElmer's ENVISION plate reader • [Material]: Optiplate-384 well plate (PerKinElmer), kinase buffer (50 mM Hepes pH7.5, 1 mM EGTA, 2 mM DTT, 10 mM Mg^2+, 0.05% BSA), B-Raf kinase (Millipore, catalogue #14-530-K), GST-MEK1 substrate (Carna, catalogue #07-141-10), Super pure ATP (Promega), ADP-GLO™ assay kit (Promega, catalogue # V9102), DMSO (Sigma, catalogue #34869), purified water (Millipore, type: Milli-Q). • [Study conditions]: Mix B-Raf kinase (final concentration: 5 nM) and compound (DMSO final concentration: 0.25%) and preincubate at 30° C. for 20 min, then add ATP (final concentration: 6 μM) and reaction substrate (final concentration: 30 nM), React for 2 hrs at 30° C. After reaction, add ADP-GLO™ reagent, react for 40 min at room temperature, then add ADP-GLO™ detecting agent, react for 30 min at room temperature. After that, use ENVSION to measure the […]. • [Samples]: Compounds in the examples and Sorafenib (positive control) • [Data analysis]: Use CBIS data analysis software to calculate IC50 values

[5] = PLC-PRF-5, PLC-PRF-5 cells, read-out: PLC-PRF-5 cell proliferation IC50
[6] = Homo sapiens, MDA-MB-231, MDA-MB-231 cells, read-out: MDA-MB-231 pERK IC50

KDR kinase (790-1356 AA), sequence (P35968 790-1356): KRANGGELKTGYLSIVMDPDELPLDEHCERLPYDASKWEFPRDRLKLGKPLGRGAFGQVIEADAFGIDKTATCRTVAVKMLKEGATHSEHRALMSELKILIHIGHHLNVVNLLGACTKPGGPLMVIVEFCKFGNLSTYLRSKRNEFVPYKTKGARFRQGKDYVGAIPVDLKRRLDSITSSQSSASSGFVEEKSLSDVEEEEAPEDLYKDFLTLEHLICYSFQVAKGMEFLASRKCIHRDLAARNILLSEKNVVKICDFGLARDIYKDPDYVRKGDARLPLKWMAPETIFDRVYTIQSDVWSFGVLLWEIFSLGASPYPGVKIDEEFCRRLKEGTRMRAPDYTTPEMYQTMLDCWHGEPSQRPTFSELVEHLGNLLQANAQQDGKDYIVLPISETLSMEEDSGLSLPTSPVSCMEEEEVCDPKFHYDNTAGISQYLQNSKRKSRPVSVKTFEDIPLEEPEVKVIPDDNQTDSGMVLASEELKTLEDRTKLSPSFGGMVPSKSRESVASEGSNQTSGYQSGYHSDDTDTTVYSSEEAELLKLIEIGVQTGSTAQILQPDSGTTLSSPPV
B-Raf kinase, sequence (P15056 416-766): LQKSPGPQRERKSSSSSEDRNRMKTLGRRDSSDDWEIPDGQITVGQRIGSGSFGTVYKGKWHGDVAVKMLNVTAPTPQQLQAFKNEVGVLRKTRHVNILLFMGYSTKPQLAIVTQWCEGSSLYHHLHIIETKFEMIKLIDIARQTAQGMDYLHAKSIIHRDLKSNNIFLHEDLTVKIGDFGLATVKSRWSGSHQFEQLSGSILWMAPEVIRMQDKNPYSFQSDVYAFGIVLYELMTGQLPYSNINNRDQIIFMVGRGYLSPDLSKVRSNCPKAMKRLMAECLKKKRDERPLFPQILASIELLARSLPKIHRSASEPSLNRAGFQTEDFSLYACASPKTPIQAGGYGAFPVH

Row | Structure (SMILES) | IC50 [1] | IC50 [3, 6] | IC50 [4] | IC50 ([3]; MDA-MB-231 cells, read-out: MDA-MB-231 pERK IC50) | IC50 [2, 5] | IC50 ([2]; PLC-PRF-5, read-out: PLC-PRF-5 cell proliferation IC50) | IC50 ([3]; Homo sapiens, MDA-MB-231, read-out: MDA-MB-231 pERK IC50)
1 | O=C(Nc1ccc(Cl)c(C(F)(F)F)c1)Nc1ccc(Oc2cc(NC(=O)C3CC3)ncn2)cc1F [Exe. 009] | 8.9 nM | 20.5 nM | 26 nM | – | 3650 nM | – | –
2 | O=C(Nc1ccc(Oc2ccnc(NC(=O)C3CC3)c2)nc1)Nc1ccc(Cl)c(C(F)(F)F)c1 [Exe. 020] | 5.8 nM | 291 nM | 19.7 nM | – | 1990 nM | – | –
3 | O=C(Nc1ccc(Oc2ccnc(NC(=O)C3CC3)c2)c(F)c1)Nc1ccc(Cl)c(C(F)(F)F)c1 [Exe. 022] | 4.3 nM | – | 3.6 nM | 19.5 nM | 1710 nM | – | –
4 | O=C(Nc1cc(F)cc(Oc2ccnc(NC(=O)C3CC3)c2)c1)Nc1ccc(Cl)c(C(F)(F)F)c1 [Exe. 024] | 33.8 nM | 19.5 nM | 5.1 nM | – | 4240 nM | – | –
5 | O=C(Nc1cnc(Oc2ccnc(NC(=O)C3CC3)c2)c(F)c1)Nc1ccc(Cl)c(C(F)(F)F)c1 [Exe. 025] | 14.9 nM | 71.6 nM | 9.1 nM | – | 371 nM | – | –
6 | O=C(Nc1ccc(Cl)c(C(F)(F)F)c1)Nc1ccc(Oc2ccnc(NC(=O)C3CC3)c2)cc1F [Exe. 029] | 3.9 nM | 10.1 nM | 7.3 nM | – | 790 nM | – | –
7 | O=C(Nc1cccc(OC(F)(F)F)c1)Nc1ccc(Oc2ccnc(NC(=O)C3CC3)c2)cc1F [Exe. 034] | 10.2 nM | 4.7 nM | 9.4 nM | – | 219 nM | – | –
8 | CC(F)(F)c1cc(F)cc(NC(=O)Nc2ccc(Oc3ccnc(NC(=O)C4CC4)c3)cc2F)c1 [Exe. 035] | 7.8 nM | 9.3 nM | 8.9 nM | – | 259 nM | – | –
9 | Cc1cc(Oc2ccnc(NC(=O)C3CC3)c2)ccc1NC(=O)Nc1ccc(F)c(C(C)(F)F)c1 [Exe. 200] | 10 nM | 5.5 nM | – | – | 3180 nM | – | –
10 | O=C(Nc1cccc(C(F)(F)F)c1)Nc1ccc(Nc2ccnc(NC(=O)C3CC3)c2)cc1F [Exe. 204] | 9.3 nM | 72 nM | – | – | 1850 nM | – | –
11 | N#Cc1ccc(NC(=O)Nc2ccc(Oc3ccnc(NC(=O)C4CC4)c3)cc2F)cc1C(F)(F)F [Exe. 206] | 14.6 nM | – | – | – | – | 1650 nM | 8.2 nM
12 | Cc1ccc(NC(=O)Nc2ccc(Oc3ccnc(NC(=O)C4CC4)c3)cc2F)cc1C(F)(F)F [Exe. 207] | 10.2 nM | 8.3 nM | – | – | 71 nM | – | –
13 | O=C(Nc1cncc(C(F)(F)F)c1)Nc1ccc(Oc2ccnc(NC(=O)C3CC3)c2)cc1F [Exe. 213] | 10.7 nM | 7.2 nM | – | – | 79 nM | – | –
14 | O=C(Nc1ccc(Oc2ccnc(NC(=O)C3CC3)c2)cc1F)Nc1cc(OC(F)(F)F)ccc1F [Exe. 214] | 9.4 nM | 11.5 nM | – | – | 180 nM | – | –
15 | Cc1ccc(Oc2ccnc(NC(=O)C3CC3)c2)cc1NC(=O)Nc1cccc(C(F)(F)F)c1 [Exe. 226] | 9.1 nM | 11 nM | – | – | 3530 nM | – | –
16 | Cc1ccc(Oc2ccnc(NC(=O)C3CC3)c2)cc1NC(=O)Nc1ccc(Cl)c(C(C)(F)F)c1 [Exe. 228] | 14.7 nM | 12 nM | – | – | 3330 nM | – | –
17 | Cc1cc(NC(=O)Nc2cc(F)cc(C(C)(F)F)c2)ccc1Oc1ccnc(NC(=O)C2CC2)c1 [Exe. 233] | 8.1 nM | 18.5 nM | – | – | 559 nM | – | –
18 | O=C(Nc1cc(-c2cn[nH]c2)cc(C(F)(F)F)c1)Nc1ccc(Oc2ccnc(NC(=O)C3CC3)c2)c(F)c1 [Exe. 238] | 15.6 nM | 57.3 nM | – | – | 2220 nM | – | –
19 | O=C(Nc1cc(NC(=O)[C@@H]2CCCN2)cc(C(F)(F)F)c1)Nc1ccc(Oc2ccnc(NC(=O)C3CC3)c2)c(F)c1 [Exe. 240] | 19.1 nM | 27.2 nM | – | – | 1040 nM | – | –

The remaining molecules from weak to strong by IC50 [1], led by results:

Row | IC50 [1] | IC50 [3, 6] | IC50 [4] | IC50 ([3]; MDA-MB-231 cells, read-out: MDA-MB-231 pERK IC50) | Structure (SMILES) | IC50 [2, 5] | IC50 ([2]; PLC-PRF-5, read-out: PLC-PRF-5 cell proliferation IC50) | IC50 ([3]; Homo sapiens, MDA-MB-231, read-out: MDA-MB-231 pERK IC50)
20 | 29.2 nM | 18.8 nM | 15.7 nM | – | Cc1cc(NC(=O)Nc2ccc(Cl)c(C(F)(F)F)c2)cnc1Oc1ccnc(NC(=O)C2CC2)c1 [Exe. 017] | 2820 nM | – | –
21 | 22.3 nM | 172 nM | 18.1 nM | – | O=C(Nc1cnc(Oc2ccnc(NC(=O)C3CC3)c2)c(Cl)c1)Nc1ccc(Cl)c(C(F)(F)F)c1 [Exe. 019] | 840 nM | – | –
22 | 16.7 nM | 372 nM | – | – | CN1CCC(C(=O)Nc2cc(NC(=O)Nc3ccc(Oc4ccnc(NC(=O)C5CC5)c4)c(F)c3)cc(C(F)(F)F)c2)CC1 [Exe. 242] | 4630 nM | – | –
23 | 16.2 nM | 61 nM | – | – | CN(c1ccnc(NC(=O)C2CC2)c1)c1ccc(NC(=O)Nc2cccc(C(F)(F)F)c2)c(F)c1 [Exe. 203] | 539 nM | – | –
24 | 14.5 nM | 33.8 nM | 25 nM | – | Cc1cc(NC(=O)Nc2ccc(Cl)c(C(F)(F)F)c2)ccc1Oc1ccnc(NC(=O)C2CC2)c1 [Exe. 031] | 1300 nM | – | –
25 | 13.7 nM | 43.1 nM | 97 nM | – | Cc1cc(NC(=O)Nc2ccc(Cl)c(C(F)(F)F)c2)ccc1Oc1cc(NC(=O)C2CC2)ncn1 [Exe. 010] | 4350 nM | – | –
26 | 13.4 nM | 6.9 nM | – | – | Cc1ccc(Oc2ccnc(NC(=O)C3CC3)c2)cc1NC(=O)Nc1ccc(F)c(C(C)(F)F)c1 [Exe. 229] | 3170 nM | – | –
27 | 12.7 nM | 391 nM | 21 nM | – | CC1(C(=O)Nc2cc(Oc3ccc(NC(=O)Nc4ccc(Cl)c(C(F)(F)F)c4)cc3F)ccn2)CC1 [Exe. 028] | 2490 nM | – | –
28 | 12.7 nM | 246 nM | – | – | CC(F)(F)c1ccc(F)c(NC(=O)Nc2cnc(Oc3ccnc(NC(=O)C4CC4)c3)c(F)c2)c1 [Exe. 202] | 66 nM | – | –
29 | 12.4 nM | 23.2 nM | 18 nM | – | Cc1ccc(Oc2ccnc(NC(=O)C3CC3)c2)cc1NC(=O)Nc1ccc(Cl)c(C(F)(F)F)c1 [Exe. 030] | 2800 nM | – | –
30 | 11.9 nM | – | 4.6 nM | – | CN1CCN(Cc2cc(NC(=O)Nc3ccc(Oc4ccnc(NC(=O)C5CC5)c4)cc3)cc(C(F)(F)F)c2)CC1 [Exe. 064] | 610 nM | – | –
31 | 11.4 nM | 326 nM | – | – | O=C(Nc1cccc(C(F)(F)F)c1)Nc1cnc(Oc2ccnc(NC(=O)C3CC3)c2)c(F)c1 [Exe. 201] | 239 nM | – | –
32 | 10.9 nM | 31 nM | 39 nM | – | Cc1cc(Oc2cc(NC(=O)C3CC3)ncn2)ccc1NC(=O)Nc1ccc(Cl)c(C(F)(F)F)c1 [Exe. 001, N-[6-[4-[[4-chloro-3-(trifluoromethyl)phenyl]carbamoylamino]-3-methyl-phenoxy]pyrimidin-4-yl]cyclopropanecarboxamide] | 6900 nM | – | –
33 | 10.5 nM | 6.9 nM | 15 nM | – | Cc1cc(Oc2ccnc(NC(=O)C3CC3)c2)ccc1NC(=O)Nc1ccc(Cl)c(C(F)(F)F)c1 [Exe. 023] | 4170 nM | – | –
34 | 8.7 nM | 17.3 nM | – | – | O=C(Nc1ccc(F)c(C2CC2)c1)Nc1ccc(Oc2ccnc(NC(=O)C3CC3)c2)cc1F [Exe. 222] | 490 nM | – | –
35 | 8.3 nM | 5.7 nM | – | – | Cc1cc(Oc2ccnc(NC(=O)C3CC3)c2)ccc1NC(=O)Nc1cc(C(C)(F)F)ccc1F [Exe. 198] | 740 nM | – | –
36 | 7.5 nM | 10.2 nM | 24.7 nM | – | O=C(Nc1ccc(Cl)c(C(F)(F)F)c1)Nc1ccc(Oc2ccnc(NC(=O)C3CC3)c2)cn1 [Exe. 021] | 600 nM | – | –
37 | 6.9 nM | 9 nM | – | – | Cc1ccc(Oc2ccnc(NC(=O)C3CC3)c2)cc1NC(=O)Nc1ccc(F)c(C(F)(F)F)c1 [Exe. 223] | 3430 nM | – | –
38 | 5.7 nM | 46 nM | 24.8 nM | – | O=C(Nc1ccc(Oc2cc(NC(=O)C3CC3)ncn2)cc1)Nc1ccc(Cl)c(C(F)(F)F)c1 [Exe. 007] | 7240 nM | – | –
39 | 5.7 nM | 124 nM | 24.9 nM | – | O=C(Nc1ccc(Oc2cc(NC(=O)C3CC3)ncn2)c(F)c1)Nc1ccc(Cl)c(C(F)(F)F)c1 [Exe. 008] | 4550 nM | – | –
40 | 5.7 nM | 14.2 nM | – | – | Cc1cc(Oc2ccnc(NC(=O)C3CC3)c2)ccc1NC(=O)Nc1cc(F)cc(C(C)(F)F)c1 [Exe. 197] | 3290 nM | – | –
